Reference: publication PMC4304211 (Bioorganic & medicinal chemistry, 2013)

Biological target: STAT3 (Homo sapiens, UniProt P40763)
Experiment: fluorescence polarization competition, single concentration […]
Format: binding
Details: read-out: % inhibition at 500 μM

Chain of STAT3 (P40763 2-770): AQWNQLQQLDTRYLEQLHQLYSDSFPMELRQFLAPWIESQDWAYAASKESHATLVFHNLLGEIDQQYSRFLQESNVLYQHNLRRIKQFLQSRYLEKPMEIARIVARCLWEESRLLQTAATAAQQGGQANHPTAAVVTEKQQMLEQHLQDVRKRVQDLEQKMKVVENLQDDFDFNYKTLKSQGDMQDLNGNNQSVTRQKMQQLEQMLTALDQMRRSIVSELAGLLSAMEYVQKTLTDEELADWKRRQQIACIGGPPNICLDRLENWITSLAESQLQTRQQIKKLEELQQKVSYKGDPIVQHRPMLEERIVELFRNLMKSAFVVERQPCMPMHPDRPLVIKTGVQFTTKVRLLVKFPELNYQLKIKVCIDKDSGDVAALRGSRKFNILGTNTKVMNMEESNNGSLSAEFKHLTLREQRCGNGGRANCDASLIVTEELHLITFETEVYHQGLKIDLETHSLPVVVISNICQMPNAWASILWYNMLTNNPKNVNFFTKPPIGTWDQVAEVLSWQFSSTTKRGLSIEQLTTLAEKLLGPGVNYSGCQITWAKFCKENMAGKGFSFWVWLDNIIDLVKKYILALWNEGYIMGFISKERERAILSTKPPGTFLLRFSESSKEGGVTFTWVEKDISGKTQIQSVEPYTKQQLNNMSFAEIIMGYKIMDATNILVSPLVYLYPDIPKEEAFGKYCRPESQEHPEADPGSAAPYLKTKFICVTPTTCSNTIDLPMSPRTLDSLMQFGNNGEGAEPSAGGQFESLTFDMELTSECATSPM

| Compound | inhibition at 500 µM [%] |
| --- | --- |
| O=C1C=C(SCCO)C(=O)c2c(O)cccc21 [PD10, 8-Hydroxy-2-((2-hydroxyethyl)thio)naphthalene-1,4-dione] | > 50 |
| NS(=O)(=O)c1cccc2c1C(=O)C=C(SCCO)C2=O [PD11, 6-((2-Hydroxyethyl)thio)-5,8-dioxo-5,8-dihydronaphthalene-1-sulfonamide] | > 50 |
